One data set concerns plasma proteins. Conditions: rabbit, in vivo.
The subject of the next data set is red blood cells. Conditions: rabbit, in vivo. The procedure:
I. Two rabbits were injected with a solution of N-succinimidyl biotin ester (NHS-biotin)(5 or 50 mg in 200 μl or 1 ml of DMSO) i.v. on day 0.

In a further data set the test system is anti-avidin titer. Kind of data set: Anti-avidin antibody titer by ELISA after i.v. avidin. It counts as in vivo, rabbit. The source says:
II. […] Within about 2 days the titer began to rise rapidly and by 10 days a high anti-avidin titer was observed by ELISA, using avidin coated to microiplates, as evidenced by an OD value of about 600.
(In general: An ELISA detects its analyte on a solid surface through an enzyme-linked reagent.)

The conditions of data set [1]: blood component in blood; cited from earlier work.

With `O=C1N[C@H]2[C@H](CS[C@H]2CCCCC(=O)ON2C(=O)CCC2=O)N1` [NHS-biotin, N-succinimidyl biotin ester], in the data set on plasma proteins, the “duration for which IgG bands could be observed” value was determined as 9 days; the “duration of detection of biotin bound to IgM and IgG” value is listed as “up to 33 days”. Moreover, in the data set with red blood cells, the “biotinylated red blood cell protein bands at 33 days” value is given as “no bands could be observed” and the “duration for which biotinylated red blood cell proteins could be observed” value came out at 12 days.
For “avidin: egg white avidin, heterologous protein and reciprocal binding member of biotin”, the “time at which anti-avidin titer began to rise rapidly” value in the data set with anti-avidin titer (250 μg or 1 mg egg white avidin i.v. after biotin conjugate administration) is on record as at most 2 days. In addition, the “anti-avidin titer, OD value (ELISA)” value in the data set with anti-avidin titer (by 10 days, 250 μg or 1 mg egg white avidin i.v. after biotin conjugate administration) is on record as “about 600”. Moreover, the anti-avidin antibody production result with anti-avidin titer (rabbits not previously given biotin conjugate, before i.v. booster of 50 μg avidin on day 6) is reported as “substantially no production of antibodies”.
Take “transferrin: blood protein, mobile blood component”: the “Half-life” value in data set [1] was 10 days.

The record behind these values is US20020009441A1, “Reactively modified therapeutic compounds having an extended lifetime in vivo” (priority 1993, published 2002).
